This note sets out measurements from ChEMBL document CHEMBL5331124, “Degradation of Hexokinase 2 Blocks Glycolysis and Induces GSDME-Dependent Pyroptosis to Amplify Immunogenic Cell Death for Breast Cancer Therapy” (J Med Chem, 2023).

One data set relates to 786-0. Put plainly: Antiproliferative activity against human 786-0 cells assessed as cell growth inhibition measured for 72 hrs by MTT assay. Format: functional, cell-based. Particulars: 786-0, 72 h. Background: Formazan colour is commonly taken as a measure of viable cells.
Data set [1] has as its system 4T1. The experiment in a line: Antiproliferative activity against mouse 4T1 cells expressing SiHK2 assessed as cell growth inhibition measured for 72 hrs by MTT assay. Format: functional, cell-based.
The target of data set [2] is T1, Hexokinase-2 (Homo sapiens) (UniProt P52789).
T1 sequence (whole entry): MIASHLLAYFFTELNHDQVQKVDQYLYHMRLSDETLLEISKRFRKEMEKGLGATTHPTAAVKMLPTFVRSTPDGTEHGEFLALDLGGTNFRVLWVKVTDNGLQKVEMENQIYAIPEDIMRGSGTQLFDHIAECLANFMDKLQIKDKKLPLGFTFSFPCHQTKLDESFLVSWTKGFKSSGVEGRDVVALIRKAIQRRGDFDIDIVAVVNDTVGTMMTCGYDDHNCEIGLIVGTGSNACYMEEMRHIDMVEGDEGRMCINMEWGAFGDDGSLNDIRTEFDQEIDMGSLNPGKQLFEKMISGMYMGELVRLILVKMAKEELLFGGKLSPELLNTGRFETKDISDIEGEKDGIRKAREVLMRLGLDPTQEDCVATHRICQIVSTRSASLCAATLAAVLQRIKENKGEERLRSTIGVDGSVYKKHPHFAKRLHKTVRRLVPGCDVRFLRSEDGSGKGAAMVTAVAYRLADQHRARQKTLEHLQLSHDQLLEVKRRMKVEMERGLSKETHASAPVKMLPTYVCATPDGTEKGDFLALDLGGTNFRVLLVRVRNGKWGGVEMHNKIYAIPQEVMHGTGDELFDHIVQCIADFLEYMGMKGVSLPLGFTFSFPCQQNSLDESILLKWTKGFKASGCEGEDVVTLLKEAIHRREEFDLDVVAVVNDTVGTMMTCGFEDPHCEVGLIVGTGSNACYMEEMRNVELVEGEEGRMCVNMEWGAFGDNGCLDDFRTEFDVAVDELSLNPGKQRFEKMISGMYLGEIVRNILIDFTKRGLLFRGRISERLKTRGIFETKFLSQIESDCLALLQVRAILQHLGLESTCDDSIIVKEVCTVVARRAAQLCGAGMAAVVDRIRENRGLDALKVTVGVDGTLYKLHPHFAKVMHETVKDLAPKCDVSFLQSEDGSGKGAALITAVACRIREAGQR
The experiment in a line: (§1) Induction of HK2 degradation in human MDA-MB-231 cells measured for 36 hrs. Format: cell-based.

The next data set deals with T2, Hexokinase-2 (Homo sapiens, UniProt P52789).
T2 sequence (P52789 whole entry): T1 sequence (whole entry)
The description is as §1. Type of data set: cell-based.

In data set [3] the target is Protein cereblon/Hexokinase-2 (Homo sapiens) (UniProt P52789+Q96SW2). Put plainly: PROTAC activity at CRBN/HK2 in human MDA-MB-231 cells assessed as […] ternary complex formation at 10 uM incubated for 24 hrs in presence of MG132. Type of data set: cell-based.
Sequence of Protein cereblon/Hexokinase-2 (Homo sapiens) (Q96SW2 whole entry, looked up, one chain of several): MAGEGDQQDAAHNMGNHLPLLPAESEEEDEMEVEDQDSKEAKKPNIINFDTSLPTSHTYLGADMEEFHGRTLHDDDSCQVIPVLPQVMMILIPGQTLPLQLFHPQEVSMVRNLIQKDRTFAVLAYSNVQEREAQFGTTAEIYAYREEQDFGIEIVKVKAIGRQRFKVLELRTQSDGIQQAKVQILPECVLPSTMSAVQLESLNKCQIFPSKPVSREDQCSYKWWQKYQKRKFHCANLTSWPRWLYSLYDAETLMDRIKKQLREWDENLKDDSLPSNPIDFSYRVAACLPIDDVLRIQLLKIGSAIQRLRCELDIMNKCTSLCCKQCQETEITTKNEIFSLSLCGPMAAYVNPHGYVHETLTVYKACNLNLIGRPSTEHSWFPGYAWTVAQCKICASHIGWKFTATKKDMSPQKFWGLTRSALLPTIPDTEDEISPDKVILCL
The target in data set [4] is Protein cereblon/Hexokinase-2 (Mus musculus) (UniProt O08528+Q8C7D2). The experiment in a line: PROTAC activity at CRBN/HK2 in mouse 4T1 cells assessed as […] ternary complex formation at 10 uM incubated for 24 hrs in presence of MG132. Format: cell-based.
Sequence of Protein cereblon/Hexokinase-2 (Mus musculus) (O08528 whole entry, looked up): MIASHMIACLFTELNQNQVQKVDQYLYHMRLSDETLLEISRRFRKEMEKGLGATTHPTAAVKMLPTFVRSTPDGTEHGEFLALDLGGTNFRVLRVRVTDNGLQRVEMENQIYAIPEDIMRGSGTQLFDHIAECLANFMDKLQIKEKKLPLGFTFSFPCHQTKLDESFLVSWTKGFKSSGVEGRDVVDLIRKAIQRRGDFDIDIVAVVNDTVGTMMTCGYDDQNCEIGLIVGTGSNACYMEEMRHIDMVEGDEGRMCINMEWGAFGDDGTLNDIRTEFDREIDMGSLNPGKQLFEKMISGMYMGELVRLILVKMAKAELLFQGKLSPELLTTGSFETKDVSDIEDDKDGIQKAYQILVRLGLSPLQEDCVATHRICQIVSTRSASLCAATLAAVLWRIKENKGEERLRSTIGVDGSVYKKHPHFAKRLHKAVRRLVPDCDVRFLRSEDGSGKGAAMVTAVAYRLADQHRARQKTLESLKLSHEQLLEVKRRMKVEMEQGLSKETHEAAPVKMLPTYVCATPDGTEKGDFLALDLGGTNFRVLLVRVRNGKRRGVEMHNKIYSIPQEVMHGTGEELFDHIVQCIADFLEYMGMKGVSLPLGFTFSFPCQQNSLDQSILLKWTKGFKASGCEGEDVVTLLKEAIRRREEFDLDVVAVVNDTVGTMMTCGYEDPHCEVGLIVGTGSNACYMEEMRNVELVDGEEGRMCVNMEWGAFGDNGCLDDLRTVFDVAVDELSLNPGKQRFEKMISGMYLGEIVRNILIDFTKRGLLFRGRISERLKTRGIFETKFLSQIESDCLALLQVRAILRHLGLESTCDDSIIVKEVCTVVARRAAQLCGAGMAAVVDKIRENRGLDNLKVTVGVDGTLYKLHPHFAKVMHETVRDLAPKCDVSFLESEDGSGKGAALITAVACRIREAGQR
Sequence of Protein cereblon/Hexokinase-2 (Mus musculus) (Q8C7D2 whole entry, looked up): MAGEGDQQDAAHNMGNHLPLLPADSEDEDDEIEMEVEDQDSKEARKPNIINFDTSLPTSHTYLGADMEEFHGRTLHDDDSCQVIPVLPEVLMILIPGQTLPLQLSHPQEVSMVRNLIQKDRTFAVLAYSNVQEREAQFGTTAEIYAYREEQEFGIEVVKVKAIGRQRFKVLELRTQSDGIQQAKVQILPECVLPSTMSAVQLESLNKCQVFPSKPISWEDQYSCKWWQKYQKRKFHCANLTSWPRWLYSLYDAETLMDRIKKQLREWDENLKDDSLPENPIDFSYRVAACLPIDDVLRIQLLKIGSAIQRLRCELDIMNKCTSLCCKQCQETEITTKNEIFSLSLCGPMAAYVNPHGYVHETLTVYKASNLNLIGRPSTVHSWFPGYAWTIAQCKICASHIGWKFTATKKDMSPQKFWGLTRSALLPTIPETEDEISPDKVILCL
Data set [5] has as its system 4T1. Put plainly: Induction of mitochondrial damage in mouse 4T1 cells assessed as reduction in LDH level at 20 uM measured for 36 hrs. Format: functional, cell-based.
The subject of data set [6] is 4T1. Put plainly: Induction of mitochondrial damage in mouse 4T1 cells assessed as reduction in lactic acid production at 20 uM measured for 36 hrs. Type of data set: functional, cell-based.
The target in data set [7] is T1, Hexokinase-2 (Homo sapiens). Put plainly: Induction of HK2 degradation in human MDA-MB-231 cells at 20 uM measured for 36 hrs by Western blot analysis. Type of data set: cell-based. A general note: A western blot detects proteins with antibodies after separation by electrophoresis.
The subject of data set [8] is MDA-MB-231. Put plainly: Induction of pyroptosis in human MDA-MB-231 cells assessed as decrease in full length caspase-3 level at 20 uM incubated for 36 hrs by Western blot analysis. Type of data set: functional, cell-based.
The subject of data set [9] is MDA-MB-231. Put plainly: Induction of pyroptosis in human MDA-MB-231 cells assessed as decrease in full length GSDME level at 20 uM incubated for 36 hrs by Western blot analysis. Type of data set: functional, cell-based.
Data set [10] deals with 4T1. The experiment in a line: Upregulation of PD-L1 expression in mouse 4T1 cells cytoplasm at 20 uM measured for 36 hrs. Type of data set: functional, subcellular.
Data set [11] can be described thus: Toxicity in BALB/c mouse implanted with mouse 4T1 cells assessed as effect on corpuscular volume at 50 mg/kg, ip measured after 25 days by routine blood test. The conditions noted are these: in vivo, 600 h, time 25 day. Format: organism-based.
In data set [12] the test system is 4T1. Put plainly: Antitumor immunity against mouse 4T1 cells implanted in BALB/c mouse model assessed as increase in cleaved caspase-3 expression in tumor. Format: functional, cell-based.
The subject of data set [13] is 4T1. Put plainly: Antitumor immunity against mouse 4T1 cells implanted in BALB/c mouse model assessed as decrease in PD-L1 protein expression in tumor. Format: functional, cell-based.
Data set [14] relates to 4T1. Put plainly: Antitumor immunity activity against mouse 4T1 cells implanted in BALB/c mouse assessed as increase in proportion of […] positive T cells in tumor by flow cytometry analysis. Type of data set: functional, cell-based. For orientation: A flow cytometer gives signals particle by particle.
Data set [15] concerns MDA-MB-231. Put plainly: Antitumor activity against human MDA-MB-231 cells xenografted in BALB/c nude mouse assessed as reduction in tumor growth at 50 mg/kg, ip measured after 28 days. Format: functional, organism-based. Particulars: time 28.0 day.
Data set [16] has as its system MDA-MB-231. Put plainly: Antitumor activity against human MDA-MB-231 cells xenografted in BALB/c nude mouse assessed as increase in N-terminal GSDME level at 50 mg/kg, ip measured after 28 days. The conditions noted are these: time 28.0 day. Format: functional, organism-based.
Data set [17] concerns 4T1. Put plainly: Antitumor activity against mouse 4T1 cells implanted in BALB/c mouse assessed as reduction in HK2 proetin level […] at 50 mg/kg, ip measured after 25 days in presence of cisplatin by Western blot analysis. Format: functional, organism-based. The conditions noted are these: time 25.0 day.
The nature of data set [18]: Toxicity in BALB/c mouse implanted with mouse 4T1 cells assessed as effect on mean corpuscular volume at 50 mg/kg, ip measured after 25 days in presence of cisplatin by routine blood test. Format: organism-based. The conditions noted are these: in vivo, 600 h, time 25 day.
Data set [19] in a line: Toxicity in BALB/c mouse implanted with mouse 4T1 cells assessed as pathological changes in liver at 50 mg/kg, ip measured after 25 days in presence of cisplatin by Hematoxylin -eosin staining based analysis. Type of data set: organism-based. Particulars: in vivo, 600 h, time 25 day.

Active and inactive are the calls of the source. No cut-off for these calls is given here.

The term IC50 denotes the concentration that gives 50% inhibition. For orientation: DC50 means the concentration at which degradation of the target reaches its halfway point. Lower therefore signals degradation at low concentration. Take `O=C1CCC(N2C(=O)c3cccc(NCCCCNC(=O)c4nn(Cc5ccc(Cl)cc5Cl)c5ccccc45)c3C2=O)C(=O)N1` (stereo unspecified): in the data set with 786-0, the half-maximal inhibitory concentration (IC50) came out at 34.1 µM. Moreover, the outcome (in the data set on 4T1 [1]; in data set [3]; in data set [4]) was inactive. Moreover, the Activity entry is “Dose-Dependent Effect” in data set [2], “Non-Toxic” in data set [11], “Non-Toxic” in data set [18] and “Non-Toxic” in [19]. The molecule also displayed a DC50 on Hexokinase-2 of 0.79 µM. Also, the outcome (in the data set with 4T1 [5]; with 4T1 [6]; in data set [7]; with MDA-MB-231 [8]; in the data set with MDA-MB-231 [9]; in the data set on 4T1 [10]) was Active. Besides, the outcome in the data set with 4T1 [12], with 4T1 [13], in the data set on 4T1 [14], with MDA-MB-231 [15], with MDA-MB-231 [16] and in the data set with 4T1 [17] was Active.
